From the supplement of paper PMC7661543 come the findings set out here.

Holding throughout (assay): relative cell number vs DMSO control (72 h) (% of DMSO); higher = less growth inhibition (more cells)
Conditions in all cases: sgRNA knockout: sgNT

For experiment [1], the system named is MDA-MB-231. In outline:
(§1)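 After 6 days of induction with 100 ng/mL doxycycline, pooled Cas9-engineered breast cancer lines were plated at 5000 cells per 96-well and dosed in duplicate for 72 h at four 10-fold concentrations (10 nM–10 μM or 1 nM–1 μM). Cell numbers came from sequenced sgRNA and cell-line barcode reads, interpolated against 293T spike-in standard curves made for each sample. Relative cell number is reported against the median of DMSO-treated samples as a percent.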

Experiment [2] has as its system SKBR3. An outline of the steps: as §1
For experiment [3], the system named is ZR-75-1. In outline: as §1
The subject of experiment [4] is BT-20. In outline: as §1
The test system of experiment [5] is HCC-38. In outline: as §1

± gives the standard deviation of the averaged measurements.

Take `COCC[n+]1c2c(n(Cc3cnccn3)c1C)C(=O)c1ccccc1C2=O` [YM155]: the relative cell number in experiment [1] (1 nM) worked out at 75.1 ± 3.9; in experiment [1] (10 nM), 27.1 ± 0.85; in experiment [1] (100 nM) it was 6.58 ± 1.3; in experiment [1] (1000 nM), 4.86 ± 1.3; in experiment [2] (1 nM) it was 79.4 ± 20; in experiment [2] (10 nM), 62.2 ± 7.2. The relative cell number in experiment [2] (100 nM) is 6.9 ± 0.62; in experiment [2] (1000 nM), 4.71 ± 4.5; in experiment [3] (1 nM), 87.2 ± 46; in experiment [3] (10 nM), 23.9 ± 13; in experiment [3] (100 nM), 6.08 ± 4.9; in experiment [3] (1000 nM), 3.11 ± 2.6. Further, the relative cell number in experiment [4] (1 nM) was 88.6 ± 16; in experiment [4] (10 nM), 41.8 ± 5; in experiment [4] (100 nM), 4.66 ± 1.7; in experiment [4] (1000 nM) it was 5.07 ± 2.5; in experiment [5] (1 nM), 54.7 ± 3.2; in experiment [5] (10 nM) it was 20.2 ± 2. The relative cell number in experiment [5] (100 nM) was determined as 4.12 ± 0.77; in experiment [5] (1000 nM) it was 5.13 ± 0.38.

As for `FC(F)c1nc2ccccc2n1-c1nc(N2CCOCC2)nc(N2CCOCC2)n1` [ZSTK474], the relative cell number in experiment [1] (10 nM) came out at 92.9 ± 15; in experiment [1] (100 nM) it was 89.6 ± 34; in experiment [1] (1000 nM), 81.7 ± 4.7; in experiment [1] (10000 nM) it was 76.3 ± 15; in experiment [2] (10 nM) it was 93.1 ± 1.6; in experiment [2] (100 nM), 85 ± 15. The relative cell number in experiment [2] (1000 nM) came out at 60.2 ± 41; in experiment [2] (10000 nM) it was 39.1 ± 6.5; in experiment [3] (10 nM) it was 85.1 ± 10; in experiment [3] (100 nM), 96.2 ± 4.4; in experiment [3] (1000 nM), 53.6 ± 27; in experiment [3] (10000 nM), 50 ± 12. The relative cell number in experiment [4] (10 nM) came to 79.2 ± 5; in experiment [4] (100 nM), 99.2 ± 19; in experiment [4] (1000 nM) it was 70.9 ± 21; in experiment [4] (10000 nM), 55.4 ± 3; in experiment [5] (10 nM) it was 90.3 ± 4.3; in experiment [5] (100 nM), 94.3 ± 9.2. Also, the relative cell number was found to be 83.4 ± 7.9 in experiment [5] (1000 nM) and 56.2 ± 1.8 in experiment [5] (10000 nM).

With `O=c1ncccn1[C@@H]1O[C@H](CO)[C@@H](O)[C@H]1O` [Zebularine], the relative cell number came out at 108 ± 38 in experiment [1] (10 nM); 121 ± 22 in experiment [1] (100 nM); 93.6 ± 0.27 in experiment [1] (1000 nM); 72.7 ± 13 in experiment [1] (10000 nM); 98.7 ± 28 in experiment [2] (10 nM); 83.6 ± 30 in experiment [2] (100 nM). Also, the relative cell number in experiment [2] (1000 nM) is 83.8 ± 14; in experiment [2] (10000 nM) it was 106 ± 9.4; in experiment [3] (10 nM), 84.7 ± 48; in experiment [3] (100 nM), 66 ± 3.3; in experiment [3] (1000 nM), 108 ± 26; in experiment [3] (10000 nM) it was 117 ± 5.5. Besides, the relative cell number in experiment [4] (10 nM) is 96.6 ± 7.1; in experiment [4] (100 nM) it was 83.6 ± 14; in experiment [4] (1000 nM) it was 88.3 ± 38; in experiment [4] (10000 nM) it was 119 ± 24; in experiment [5] (10 nM), 112 ± 28; in experiment [5] (100 nM) it was 107 ± 6.2. The relative cell number in experiment [5] (1000 nM) came out at 107 ± 1.8; in experiment [5] (10000 nM), 115 ± 7.4.
